What was measured:
Assay type in all cases: in vivo, rat
IgA [1] = experiment: Ovalbumin-specific IgA ELISA of serum of immunised rats; conditions: Day 1; 50 ug with 20 μg Ova s.c. on days 21 and 42; pooled group serum
IgG1 = experiment: Ovalbumin-specific IgG1 ELISA of serum of immunised rats; conditions: pooled group serum
Method: (§1) Rats were injected with vaccine compositions comprising the ovalbumin antigen with and without di-oleoyl phosphatidyl serine, lyso-oleoyl phosphatidyl serine or stearoyl(X1)-arachidonoyl(X2) phosphatidyl serine and the concentrations of IgE, IgA and IgG are compared.
(§2) The animals were acclimatised for a period of 5 days prior to dosing. During the acclimatisation period animals were observed twice daily during the working week and once on each day during the weekend to evaluate the health status of the animals. Rats were then allocated to the following dose groups using computer-generated random order numbers.
(§3) On day 0, 20 μg of ovalbumin (OA) in phosphate buffered saline (PBS) with alhydrogel (AHG) adjuvant in a final volume of 0.5 mL was administered.
(§4) On days 21 and 42, 20 μg of ovalbumin (OA) in phosphate buffered saline (PBS) with the relevant test compound in a final volume of 0.5 ml was administered.
(§5) In each case, 0.5 mL of inoculum was injected subcutaneously into the scruff of the neck. […]
(§6) Serum was prepared by centrifugation of the blood sample at 2,500 rpm for 10 minutes and frozen at −20° C. The samples were then analysed by ELISA to establish the concentration of IgE, IgA and IgG1, IgG2a and IgG2b.
The purpose of an ELISA is to determine whether a particular protein is present in a sample and then enables quantification of how much is present. By coating the bottom of wells with ovalbumin (OVA) it is possible to bind anti-OVA specific antibodies. […] Quantification of specific antibodies in the rat sera samples was performed using antibody titrations. The data was reported as endpoint titers. Endpoint titers are defined as the last serum dilution giving an optical density value equal to twice the background optical density for the ELISA plate (buffer).

IgE [2] = experiment: Ovalbumin-specific IgE ELISA of serum of immunised rats; conditions: Day 1; 250 ug with 20 μg Ova s.c. on days 21 and 42; pooled group serum
IgE [3] = experiment: as above; conditions: pooled group serum
Method: as §1, §2, §3, §4
(§7) In each case, 0.5 mL of inoculum was injected subcutaneously into the scruff of the neck.
(§8) […] A blood sample was also taken from each animal on Days 15, 22, 29, 36, 43, 50, 57 and 64.
as §6
(§9) The purpose of an ELISA is to determine whether a particular protein is present in a sample and then enables quantification of how much is present. By coating the bottom of wells with ovalbumin (OVA) it is possible to bind anti-OVA specific antibodies. To detect only anti-OVA IgA antibodies anti-rat IgA conjugated to HRP was used as a secondary antibody. Quantification of specific antibodies in the rat sera samples was performed using antibody titrations. The data was reported as endpoint titers. Endpoint titers are defined as the last serum dilution giving an optical density value equal to twice the background optical density for the ELISA plate (buffer).

IgG2a = experiment: Ovalbumin-specific IgG2a ELISA of serum of immunised rats; conditions: pooled group serum
Method: as §1, §2, §3, §4, §5, §6, §9

IgA [4] = experiment: Ovalbumin-specific IgA ELISA of serum of immunised rats; conditions: pooled group serum
Method: as §1, §2, §3, §4, §7
On Day 0 a pre-inoculation blood sample was taken. A blood sample was also taken from each animal on Days 15, 22, 29, 36, 43, 50, 57 and 64.
as §6, §9

IgG2b = experiment: Ovalbumin-specific IgG2b ELISA of serum of immunised rats; conditions: pooled group serum
Method: as §1, §2, §3, §4, §7, §8, §6, §9

[5] = Day 1, 50 ug with 20 μg Ova s.c. on days 21 and 42
[6] = Day 1, 250 ug with 20 μg Ova s.c. on days 21 and 42
[7] = Day 15, 50 ug with 20 μg Ova s.c. on days 21 and 42
[8] = Day 15, 250 ug with 20 μg Ova s.c. on days 21 and 42
[9] = Day 22, 50 ug with 20 μg Ova s.c. on days 21 and 42
[10] = Day 22, 250 ug with 20 μg Ova s.c. on days 21 and 42
[11] = Day 29, 50 ug with 20 μg Ova s.c. on days 21 and 42
[12] = Day 29, 250 ug with 20 μg Ova s.c. on days 21 and 42
[13] = Day 36, 50 ug with 20 μg Ova s.c. on days 21 and 42
[14] = Day 36, 250 ug with 20 μg Ova s.c. on days 21 and 42
[15] = Day 43, 50 ug with 20 μg Ova s.c. on days 21 and 42
[16] = Day 43, 250 ug with 20 μg Ova s.c. on days 21 and 42
[17] = Day 50, 50 ug with 20 μg Ova s.c. on days 21 and 42
[18] = Day 50, 250 ug with 20 μg Ova s.c. on days 21 and 42
[19] = Day 57, 50 ug with 20 μg Ova s.c. on days 21 and 42
[20] = Day 57, 250 ug with 20 μg Ova s.c. on days 21 and 42
[21] = Day 64, 50 ug with 20 μg Ova s.c. on days 21 and 42
[22] = Day 64, 250 ug with 20 μg Ova s.c. on days 21 and 42

CCCCCCCC/C=C\CCCCCCCC(=O)OC[C@H](COP(=O)(O)OC[C@H](N)C(=O)O)OC(=O)CCCCCCC/C=C\CCCCCCCC [VT001, Dioleoyl phosphatidyl serine]
IgA endpoint titer (IgA [1]): 0 | IgG1 endpoint titer (IgG1; [5]): 0 | IgG1 endpoint titer (IgG1; [6]): 0 | IgG1 endpoint titer (IgG1; [7]): 160 | IgG1 endpoint titer (IgG1; [8]): 160 | IgG1 endpoint titer (IgG1; [9]): 2560 | IgG1 endpoint titer (IgG1; [10]): 2560 | IgG1 endpoint titer (IgG1; [11]): 40960 | IgG1 endpoint titer (IgG1; [12]): 20480 | IgG1 endpoint titer (IgG1; [13]): 20480 | IgG1 endpoint titer (IgG1; [14]): 40960 | IgG1 endpoint titer (IgG1; [15]): 10240 | IgG1 endpoint titer (IgG1; [16]): 10240 | IgG1 endpoint titer (IgG1; [17]): 20480 | IgG1 endpoint titer (IgG1; [18]): 10240 | IgG1 endpoint titer (IgG1; [19]): 40960 | IgG1 endpoint titer (IgG1; [20]): 40960 | IgG1 endpoint titer (IgG1; [21]): 20480 | IgG1 endpoint titer (IgG1; [22]): 20480 | IgE endpoint titer (IgE [2]): 0 | IgE endpoint titer (IgE [3]; [5]): 0 | IgE endpoint titer (IgE [3]; [7]): 0 | IgE endpoint titer (IgE [3]; [8]): 0 | IgE endpoint titer (IgE [3]; [9]): 0 | IgE endpoint titer (IgE [3]; [10]): 0 | IgE endpoint titer (IgE [3]; [11]): 0 | IgE endpoint titer (IgE [3]; [12]): 40 | IgE endpoint titer (IgE [3]; [13]): 40 | IgE endpoint titer (IgE [3]; [14]): 40 | IgE endpoint titer (IgE [3]; [15]): 0 | IgE endpoint titer (IgE [3]; [16]): 80 | IgE endpoint titer (IgE [3]; [17]): 1280 | IgE endpoint titer (IgE [3]; [18]): 1280 | IgE endpoint titer (IgE [3]; [19]): 160 | IgE endpoint titer (IgE [3]; [20]): 160 | IgE endpoint titer (IgE [3]; [21]): 0 | IgE endpoint titer (IgE [3]; [22]): 40 | IgG2a endpoint titer (IgG2a; [5]): 0 | IgG2a endpoint titer (IgG2a; [6]): 0 | IgG2a endpoint titer (IgG2a; [7]): 40 | IgG2a endpoint titer (IgG2a; [8]): 640 | IgG2a endpoint titer (IgG2a; [9]): 2560 | IgG2a endpoint titer (IgG2a; [10]): 1280 | IgG2a endpoint titer (IgG2a; [11]): 5120 | IgG2a endpoint titer (IgG2a; [12]): 2560 | IgG2a endpoint titer (IgG2a; [13]): 10240 | IgG2a endpoint titer (IgG2a; [14]): 5120 | IgG2a endpoint titer (IgG2a; [15]): 10240 | IgG2a endpoint titer (IgG2a; [16]): 10240 | IgG2a endpoint titer (IgG2a; [17]): 40960 | IgG2a endpoint titer (IgG2a; [18]): 40960 | IgG2a endpoint titer (IgG2a; [19]): 40960 | IgG2a endpoint titer (IgG2a; [20]): 40960 | IgG2a endpoint titer (IgG2a; [21]): 20480 | IgG2a endpoint titer (IgG2a; [22]): 20480 | IgA endpoint titer (IgA [4]; [6]): 0 | IgA endpoint titer (IgA [4]; [7]): 0 | IgA endpoint titer (IgA [4]; [8]): 0 | IgA endpoint titer (IgA [4]; [9]): 0 | IgA endpoint titer (IgA [4]; [10]): 0 | IgA endpoint titer (IgA [4]; [11]): 320 | IgA endpoint titer (IgA [4]; [12]): 320 | IgA endpoint titer (IgA [4]; [13]): 640 | IgA endpoint titer (IgA [4]; [14]): 640 | IgA endpoint titer (IgA [4]; [15]): 320 | IgA endpoint titer (IgA [4]; [16]): 640 | IgA endpoint titer (IgA [4]; [17]): 1280 | IgA endpoint titer (IgA [4]; [18]): 1280 | IgA endpoint titer (IgA [4]; [19]): 1280 | IgA endpoint titer (IgA [4]; [20]): 1280 | IgA endpoint titer (IgA [4]; [21]): 640 | IgA endpoint titer (IgA [4]; [22]): 640 | IgG2b endpoint titer (IgG2b; [5]): 0 | IgG2b endpoint titer (IgG2b; [6]): 0 | IgG2b endpoint titer (IgG2b; [7]): 160 | IgG2b endpoint titer (IgG2b; [8]): 320 | IgG2b endpoint titer (IgG2b; [9]): 320 | IgG2b endpoint titer (IgG2b; [10]): 640 | IgG2b endpoint titer (IgG2b; [11]): 160 | IgG2b endpoint titer (IgG2b; [12]): 640 | IgG2b endpoint titer (IgG2b; [13]): 160 | IgG2b endpoint titer (IgG2b; [14]): 2560 | IgG2b endpoint titer (IgG2b; [15]): 160 | IgG2b endpoint titer (IgG2b; [16]): 1280 | IgG2b endpoint titer (IgG2b; [17]): 2560 | IgG2b endpoint titer (IgG2b; [18]): 1280 | IgG2b endpoint titer (IgG2b; [19]): 5120 | IgG2b endpoint titer (IgG2b; [20]): 5120 | IgG2b endpoint titer (IgG2b; [21]): 5120 | IgG2b endpoint titer (IgG2b; [22]): 5120

From patent US8765721B2, “Composition comprising phosphatidyl serine and an antigen or allergen and the use thereof” (Vaccine Technology Limited, priority 2004, dated 2014)
